The subject of this experiment is different microbes (Bacillus cereus, Staphylococcus aureus, Pseudomonas aeruginosa, Escherichia coli, Aspergillus flavus, Chrysosporium keratinophilum). Briefly: Antimicrobial testing, agar plate disc-diffusion method. The experiment is classed as cell-based. The following applies: screened against gram-positive and gram-negative bacteria and fungi; result in words only, no inhibition zones printed. As for the experimental part:
The agar plate disc-diffusion method was applied. Sterilized filter papers (6 mm in diameter) were wetted with 10 μL of a solution of 4-(4,5-bis(4-bromophenyl)-2-(4-chlorophenyl)-1H-imidazol-1-yl)butanoic acid (V) to be tested, containing 10 mg/mL in DMSO, and the discs were allowed to air dry. The discs were then placed onto the surface of agar plates (nutrient agar for bacteria and Sabouraud's dextrose agar for fungi) seeded with the test organism. Each plate contained 15 mL of the agar medium, previously seeded with 0.2 mL of the broth culture of each organism pregrown for 18 hours. The plates were incubated at 37° C. for 48 hours, and 72 hours for fungi. The inhibition zones was measured in mm. Discs impregnated with DMSO were used as a control, and its inhibition zone was subtracted from the tested compound actual inhibition zone.
(In general: In agar diffusion tests the substance spreads into inoculated agar from a disc or well.)

`O=C(O)CCCn1c(-c2ccc(Cl)cc2)nc(-c2ccc(Br)cc2)c1-c1ccc(Br)cc1` [V, 4-(4,5-bis(4-bromophenyl)-2-(4-chlorophenyl)-1H-imidazol-1-yl)butanoic acid]: the “antimicrobial activities against different microbes” value is reported as “excellent antimicrobial activities”.

The values are drawn from US11981642B1, “4-(4,5-bis(4-bromophenyl)-2-(4-chlorophenyl)-1H-imidazol-1-yl)butanoic acid as an antimicrobial compound” (priority 2023, dated 2024).
